SMILES strings stand for the structures. Entries after “also recorded” stand apart in the source; their conditions may differ.

Data set [1] in a line: Cytotoxicity testing in HeLa cells (methylene blue). In kind it is cell-based. The note with it: human, HeLa cells (DSM ACC 57), 72 hours incubation. How it is done:
Hela cells (DSM ACC 57) were grown in RPMI 1640 medium supplemented with 10 mL·L^−1 ultraglutamine 1 (CAMBREX 17-605E/U1), 550 μL·L^−1 gentamicin sulfate (50 mg·mL^−1, CAMBREX 17-518Z) and 10% heat inactivated fetal bovine serum (GIBCO Life Technologies 10270-106) at 37° C. in a 5% CO2 atmosphere in high density polyethylene flasks (NUNC 156340). Cells were pre-incubated for 48 hours in the absence of test substances. Subsequently, Hela cells were incubated with serial dilutions of the test substances in 96 well microplates for 72 hours at 37° C. in a humidified atmosphere and 5% CO2. After incubation, the cytolytic effect of compounds was analyzed relative to the negative control (DMSO) using a colorimetric assay (methylene blue). The adherent Hela cells were fixed by glutaraldehyde (MERCK 1.04239.0250) and stained with a 0.05% solution of methylene blue (SERVA 29198) for 15 min. After gentle rinsing, the stain was eluted through addition of 0.2 mL hydrochloric acid (0.33 M) to each well. The absorptions were measured at 660 nm in a SUNRISE microplate reader (TECAN). Four replicates were assayed for each substance. […] All calculations of CC50 values were performed with the software Magellan (TECAN).

The target in data set [2] is T1, ATX (Homo sapiens, UniProt Q13822).
T1 construct: purchased
The data set is described as follows: ATX activity assay (Autotaxin inhibitor test kit, fluorescent ATX substrate). The class given is biochemical. On the procedure:
(§1) A solution of 10 mM of the inhibitor to test in DMSO was received. Adding 40.5 μL of this solution to 959.5 μL DMSO gave a concentration of 405 μM. […] For a threefold dilution series 800 μL of 18% DMSO in water were dispensed in twelve 1.5 mL test tubes. 400 μL of the 75.9 μM inhibitor solution were added to the first vial and the solution was vortexed. For every dilution step 400 μL of the corresponding previous dilution step were transferred and mixed by vortexing. The obtained concentrations were 7594 nM, 2531 nM, 844 nM, 281 nM, 94 nM, 31 nM, 10 nM, 3.47 nM, 1.16 nM, 0.39 nM, 0.13 nM, 0.043 nM, 0.014 nM. The eight concentration steps from 31 nM to 0.014 nM were used in the assay.
The assay was performed according to the attached manual of the assay kit. In brief 80 μL reaction buffer containing ATX, 10 μL of the dilution series from the inhibitor and 10 μL fluorescent ATX substrate solution were mixed in a well of a 96 well plate. Cleavage of the substrate by ATX causes increase in fluorescence (excitation 485 nm, emission 528 nm), which is measured by a plate reader in 1 min intervals. The increase of fluorescence between 5 min and 15 min was used to calculate the reaction rate.
The autotaxin reaction was performed in four parallel replicates for the target inhibitor and two replicates for the positive control BrP-LPA. The slope of the increase in fluorescence was calculated by Excel using the “slope” function. The IC50 was calculated by GraphPad Prism using the nolinear regression (curve fit): “log (inhibitor) vs. response with variable slope (four parameters)”.
The autotaxin reaction was performed in three parallel replicates for the target inhibitors MJK2234001 and MJK2234002 and two replicates for MJK2134025 and two replicates for the positive control BrP-LPA. All ATX-tests were performed using the protocol as described above with minor modifications. Those modifications refer to the dilution principle:
as §1, with “The obtained concentrations were 7594 nM, 2531 nM, 844 nM, 281 nM, 94 nM, 31 nM, 10 nM, 3.47 nM, 1.16 nM, 0.39 nM, 0.13 nM, 0.043 nM, 0.014 nM.” left out, “300” for “31”, “0.14” for “0.014”, “assay. During the assay, the final concentration of the inhibitor during the reaction was 1/10th of the added inhibitor solution.” for “assay.”

In general, CC50 refers to the concentration that lowers cell viability or growth by half. As a reminder, the IC50 is the concentration needed to halve the response being measured. Consider `O=C(OCc1cc(C(F)(F)F)cc(C(F)(F)F)c1)N1CCN(CCS(=O)(=O)c2ccc3nn[nH]c3c2)CC1` [MJK2134025, 3,5-bis(trifluoromethyl)benzyl 4-(2-((1H-benzo[d][1,2,3]triazol-6-yl)sulfonyl)ethyl)piperazine-1-carboxylate], for which the midpoint of cytotoxicity in data set [1], the CC50 at 72 h, lay at 45100 nM. Also, the “ATX-inhibitory activity (comparison in words)” value in data set [2] was “almost equal ATX-inhibitory activity; also recorded: comparable ATX-inhibtion as PF8380”. In addition, the half-maximal inhibitory concentration (IC50) in data set [2] (read-out: IC50 (nM) ATX inhibition) is 1.8 nM.

The record behind these values is patent US20240391903A1, “AUTOTAXIN-INHIBITORS” (UNIVERSITAET MUENSTER, priority 2021, published 2024).
